Measurements: the supplement of paper PMC8882468
± gives the standard deviation of the averaged measurements.

Experiments:
Experiment in all cases: CTG-3D luminescence at 96 h relative to day-0 seeding control (ratio to day 0); higher = more growth / less cytotoxicity; PDxO 3D drug screen (set 2), 96 h, CTG-3D normalised to day-0 seeding control.
HCI-008 = tested on: HCI-008 (organoid from a HER2-enriched breast cancer xenograft)
HCI-017.E2 = tested on: HCI-017.E2 (organoid from an ER-positive breast cancer xenograft)
HCI-011.E2 = tested on: HCI-011.E2 (organoid from an ER-positive breast cancer xenograft)
HCI-025 = tested on: HCI-025 (organoid from a breast cancer xenograft)
HCI-016 = tested on: HCI-016 (organoid from a triple-negative breast cancer xenograft)

CS(=O)(=O)CCNCc1ccc(-c2ccc3ncnc(Nc4ccc(OCc5cccc(F)c5)c(Cl)c4)c3c2)o1 [lapatinib]
CTG-3D luminescence at 96 h
Settings	12.5 pM	0.00025 µM	0.005 µM	0.1 µM	1 µM	10 µM	100 µM	625 fM
HCI-008, days in culture: 325	1.68	1.81	1.73	3.2	2.32	0.898	0.0242	1.5
HCI-008, days in culture: 340	1.22	2.1	1.96	1.35	2.47	–	0.0374	1.39
HCI-008, days in culture: 354	1.62	1.04	2.27	1.42	1.52	0.935	0.00653	1.13
HCI-008, days in culture: 382	1.61	1.47	1.81	1.52	1.25	0.425	0.00105	1.22
HCI-011.E2, days in culture: 74	2.75	2.14	2.07	2.34	1.66	0.607	-0.00505	2.76
HCI-016, days in culture: 305	2.19	2.44	2.88	3.72	1.92	0.286	-0.00685	4
HCI-016, days in culture: 327	1.07	0.931	1.47	1.74	1.12	0.284	0.000753	2.05
HCI-016, days in culture: 341	2.29	1.62	2.18	1.86	1.6	0.474	-0.00181	2.42
HCI-016, days in culture: 397	1.92	2.19	2.02	2.38	1.32	0.254	-0.000202	2.47
HCI-017.E2, days in culture: 85	2.34	1.93	1.68	2.32	1.61	0.581	0.0189	2.45
HCI-025, days in culture: 175	1.92	2.05	1.45	2.22	2.73	1.66	0.00817	1.88
HCI-025, days in culture: 189	1.99	2.19	1.58	3.08	1.26	0.872	0.00432	2.46
HCI-025, days in culture: 212	1.59	3.22	4.13	3.86	1.17	0.527	0.00417	1.69
HCI-025, days in culture: 224	2.14	1.93	1.8	1.82	1.84	0.896	0.000609	1.83

CTG-3D luminescence at 96 h
Settings	12.5 pM	0.00025 µM	0.005 µM	0.1 µM	1 µM	10 µM	100 µM	625 fM
HCI-011.E2	1.6 ± 0.27	1.63 ± 0.19	1.26 ± 0.29	1.72 ± 0.14	1.57 ± 0.081	0.982 ± 0.17	0.0218 ± 0.021	2.23 ± 0.73
HCI-017.E2	2.11 ± 0.029	2.75 ± 0.76	2.4 ± 0.061	2.37 ± 0.3	1.95 ± 0.13	0.905 ± 0.14	0.00683 ± 0.0022	2.65 ± 0.43

Nc1cc(C(F)(F)F)c(-c2cc(N3CCOCC3)nc(N3CCOCC3)n2)cn1 [buparlisib]
CTG-3D luminescence at 96 h
Settings	12.5 pM	0.00025 µM	0.005 µM	0.1 µM	1 µM	10 µM	100 µM	625 fM
HCI-008, days in culture: 325	0.757	2.89	2.4	2.51	1.17	0.647	0.313	1.94
HCI-008, days in culture: 340	0.632	2.38	1.94	1.55	1.56	–	0.305	1.04
HCI-008, days in culture: 354	0.796	1.19	2.59	1.46	0.578	0.294	0.327	1.16
HCI-008, days in culture: 382	1.52	1.82	1.45	1.71	0.652	0.363	0.104	1.9
HCI-011.E2, days in culture: 74	2.23	1.9	1.83	2.23	0.711	0.135	0.0559	2.32
HCI-016, days in culture: 305	2.89	2.88	2.23	4.87	1.89	0.444	0.606	5.12
HCI-016, days in culture: 327	1.19	1.21	1.32	2.02	1.16	0.497	0.431	1.23
HCI-016, days in culture: 341	2.17	1.78	2.04	2.44	1.48	0.65	0.484	2.59
HCI-016, days in culture: 397	1.77	2.39	1.33	2.74	1.41	0.71	0.511	2.25
HCI-017.E2, days in culture: 85	2.1	1.79	1.67	1.9	0.668	0.194	0.256	2.53
HCI-025, days in culture: 175	1.38	1.85	1.95	1.88	1.75	0.433	0.118	1.71
HCI-025, days in culture: 189	2.47	2.03	1.96	1.69	1.36	0.246	0.0627	2.83
HCI-025, days in culture: 212	3.39	3.81	2.06	1.13	1.13	0.331	0.0312	1.54
HCI-025, days in culture: 224	2.03	2.32	1.5	1.44	1.75	0.339	0.136	1.69

CTG-3D luminescence at 96 h
Settings	12.5 pM	0.00025 µM	0.005 µM	0.1 µM	1 µM	10 µM	100 µM	625 fM
HCI-011.E2	1.59 ± 0.17	1.75 ± 0.2	1.23 ± 0.11	1.38 ± 0.12	0.772 ± 0.013	0.191 ± 0.037	0.0881 ± 0.021	2.09 ± 0.41
HCI-017.E2	1.864 ± 0.0089	2.59 ± 0.59	2.12 ± 0.061	2.15 ± 0.59	0.869 ± 0.2	0.263 ± 0.024	0.208 ± 0.047	2.26 ± 0.043

CO[C@H]1C[C@@H]2CC[C@@H](C)[C@@](O)(O2)C(=O)C(=O)N2CCCC[C@H]2C(=O)O[C@H]([C@H](C)C[C@@H]2CC[C@@H](O)[C@H](OC)C2)CC(=O)[C@H](C)/C=C(\C)[C@@H](O)[C@@H](OC)C(=O)[C@H](C)C[C@H](C)/C=C/C=C/C=C/1C [rapamycin]
CTG-3D luminescence at 96 h
Settings	12.5 pM	0.00025 µM	0.005 µM	0.1 µM	1 µM	10 µM	100 µM	625 fM
HCI-008, days in culture: 325	1.02	2.07	1.15	1.85	1.96	1.63	0.0243	1.04
HCI-008, days in culture: 340	0.377	2.04	1.44	0.883	1.17	–	0.0122	0.721
HCI-008, days in culture: 354	1.17	0.924	1.28	0.845	0.613	1.04	0.0113	0.658
HCI-008, days in culture: 382	1.67	1.28	0.869	1.12	0.658	1.06	0.0068	1.24
HCI-011.E2, days in culture: 74	2.21	1.44	1.16	0.949	0.784	0.995	0.0116	2.1
HCI-016, days in culture: 305	1.79	1.77	1.74	4.51	1.66	1.4	0.0174	3.16
HCI-016, days in culture: 327	0.432	0.896	2.06	1.99	0.951	1.2	0.023	0.782
HCI-016, days in culture: 341	1.45	1.24	1.81	1.73	1.34	1.81	0.00758	1.9
HCI-016, days in culture: 397	1.84	1.69	1.26	1.35	1.52	1.39	0.0166	1.94
HCI-017.E2, days in culture: 85	2.2	1.67	1.47	1.51	1.34	1.31	0.0123	2.57
HCI-025, days in culture: 175	1.08	1.22	1.44	1.39	1.87	1.67	0.0257	0.977
HCI-025, days in culture: 189	1.35	1.19	1.11	0.862	0.888	0.979	0.0056	1.27
HCI-025, days in culture: 212	2.1	0.842	1.53	1.27	0.387	1.15	0.0154	1.5
HCI-025, days in culture: 224	1.83	1.19	0.969	0.734	1.53	1.31	0.00743	1.36

CTG-3D luminescence at 96 h
Settings	12.5 pM	0.00025 µM	0.005 µM	0.1 µM	1 µM	10 µM	100 µM	625 fM
HCI-011.E2	0.71 ± 0.12	0.7694 ± 0.0021	0.724 ± 0.05	0.909 ± 0.034	0.688 ± 0.042	1.05 ± 0.065	0.0136 ± 0.00019	1.05 ± 0.26
HCI-017.E2	1.41 ± 0.26	1.88 ± 0.34	1.61 ± 0.12	1.58 ± 0.15	1.56 ± 0.074	1.63 ± 0.34	0.0217 ± 0.0042	1.583 ± 0.013

CCOc1ccn(-c2ccc(F)cc2)c(=O)c1C(=O)Nc1ccc(Oc2ccnc(N)c2Cl)c(F)c1 [ASLAN002]
CTG-3D luminescence at 96 h
Settings	12.5 pM	0.00025 µM	0.005 µM	0.1 µM	1 µM	10 µM	100 µM	625 fM
HCI-008, days in culture: 325	1.03	2.2	2.46	3.53	3.54	2.48	1.08	2.16
HCI-008, days in culture: 340	0.543	2.27	1.52	1.76	1.83	–	0.867	0.758
HCI-008, days in culture: 354	1.38	1.4	2.81	1.45	1.54	0.917	0.857	1.08
HCI-008, days in culture: 382	1.45	1.54	1.29	1.09	0.767	1.78	0.377	1.52
HCI-011.E2, days in culture: 74	2.83	2.42	2.58	2.8	2.58	2.52	1.66	2.28
HCI-016, days in culture: 305	1.62	3.6	3.65	4.35	2.71	1.97	2.68	3.43
HCI-016, days in culture: 327	0.8	1.78	1.32	1.46	1.87	1.58	1.05	1.72
HCI-016, days in culture: 341	1.97	1.78	2.09	2.6	1.97	2	0.676	2.26
HCI-016, days in culture: 397	1.73	2.37	1.99	2.59	2.39	2.98	0.779	2.52
HCI-017.E2, days in culture: 85	2.5	1.78	1.94	2.7	2.23	1.93	1.32	2.13
HCI-025, days in culture: 175	1.55	1.97	1.91	2.81	2.73	2.56	1.7	1.46
HCI-025, days in culture: 189	2.49	2.61	1.96	2.27	2.6	1.72	0.561	2.72
HCI-025, days in culture: 212	1.41	1.8	3.86	1.18	0.524	1.75	0.694	1.16
HCI-025, days in culture: 224	2.08	0.982	2.02	1.32	1.95	1.87	1.18	1.86

CTG-3D luminescence at 96 h
Settings	12.5 pM	0.00025 µM	0.005 µM	0.1 µM	1 µM	10 µM	100 µM	625 fM
HCI-011.E2	1.61 ± 0.075	1.78 ± 0.14	1.28 ± 0.058	1.76 ± 0.24	1.41 ± 0.029	2.11 ± 0.77	1.39 ± 0.11	2.23 ± 0.58
HCI-017.E2	2.06 ± 0.14	2.58 ± 0.42	2.12 ± 0.22	2.27 ± 0.29	2.14 ± 0.28	2.39 ± 0.08	1.17 ± 0.015	2.34 ± 0.14
